In US20190054019A1, “METHODS FOR USING REGULATORS FOR INCREASING THE EXPRESSION OR ACTIVATION OF P53 AND/OR REGULATORS FOR REDUCING OR INHIBITING THE EXPRESSION OF P63-ALPHA, FOR THE TREATMENT OF NON-ALCOHOLIC FATTY LIVER DISEASE (NAFLD) AND/OR NON-ALCOHOLIC STEATOHEPATITIS (NASH)” (Universidade de Santiago de Compostela, priority 2015, published 2019):

Experiments:
HepG2 = assay: Accumulation of lipids induced by oleic acid in human hepatocytes (HepG2); type: cell-based; details: 48 h
Procedure: The hepatocyte cell line of human origin HepG2 was treated with bovine serum albumin (BSA, which represents the control group), oleic acid (OA) and 50 nM oleic acid+doxorubicin for 48 h.

[1] = Doxorubicin intraperitoneal for 5 days in Swiss mice on standard diet: body weight; type: in vivo, mice of the Swiss strain
[2] = system: mice of the C57/B6 strain fed with a HFD; assay: Doxorubicin in C57/B6 mice fed HFD (60% fat); type: in vivo; details: 0.6 mg/kg i.p. twice per week, two months
Procedure: Subsequently, mice were administered a dose of 0.6 mg/kg intra-peritoneally twice per week during a further period of two months.

HepG2 cells = assay: Response of HepG2 cells (control or p53 negative dominant) to etoposide; type: cell-based, human
Excerpt: FIG. 9. Effect of p53 silencing in HepG2 cells. (A) Efficiency of the down-regulation of p53 in HepG2 cells transfected with adenoviruses expressing GFP alone or adenoviruses encoding a p53 negative dominant. (B) Oil red staining in HepG2 cells treated with etoposide at different concentrations. (C) Representative western blot of protein levels of peIF2α and Xbp1 in HepG2 cells non-treated and treated with etoposide. *p<0.05, n=4 per group.
HepG2 cells were infected with adenoviruses expressing GFP alone or adenoviruses encoding a p53 negative dominant and treated with etoposide.
HepG2 cells were infected with adenoviruses expressing GFP alone or adenoviruses encoding a p53 negative dominant. Infection efficiency was assessed by decreased expression of phosphor-p53 (pp53) (FIG. 9A). In order to investigate the response of control cells and cells with silenced p53, we challenged them to etoposide, a well established compound that induces stress.

[3] = 0.6 mg/kg i.p. twice per week, 2 months
[4] = 0.6 mg/kg, two months, vs control vehicle
[5] = HepG2 cells treated with etoposide

CCCCCCCC/C=C\CCCCCCCC(=O)O [oleic acid]
amount of lipids in the cells vs BSA control (HepG2; oleic acid): significantly increases the amount of lipids

COc1cccc2c1C(=O)c1c(O)c3c(c(O)c1C2=O)C[C@@](O)(C(=O)CO)C[C@@H]3O[C@H]1C[C@H](N)[C@H](O)[C@H](C)O1 [doxorubicin]
body weight change ([1]; 0.3, 0.6, 1.25, 2.5 and 5 mg/kg intraperitoneal, 1 injection/day, dose dependent): significant loss of weight | dosages capable of reducing the body weight significantly ([1]; intraperitoneal): ≥ 0.6 mg/kg | body weight [2]: reduced their body weight significantly | hepatic tryglicerides [2]: significantly reduced | amount of lipids in the cells vs cells treated with oleic acid (HepG2; 50 nM oleic acid+doxorubicin): significant decrease in the amount of lipids | body composition: muscle mass (HFD-induced obese mice; [3]): without altering the muscle mass | body composition: quantity of fat (HFD-induced obese mice; [3]): reduce quantity of fat | levels of troponine (marker of cardiovascular damage) (HFD-induced obese mice; 0.6 mg/kg i.p., serum): fails to significantly increase | hepatic damage (histological study) (HFD-induced obese mice; 0.6 mg/kg, two months): reduced hepatic damage | liver expression of inflammatory markers TNF-α, arginase, IL-6, NOS2 and F480 (HFD-induced obese mice; 0.6 mg/kg, two months, mRNA): reduces the expression | level of non-esterified fatty acids in the liver (HFD-induced obese mice; [4]): increased | level of triglycerides in the liver (HFD-induced obese mice; [4]): reduced | liver protein levels of ER stress genes pIRE, XBP1, CHOP, pJNK (HFD-induced obese mice; 0.6 mg/kg, two months, western blot): reduced the protein levels | body weight (HFD-induced obese mice; all studied dosages (0.15, 0.3, 0.6, 1.25 mg/kg) i.p. twice per week, 2 months): significant loss of body weight

COc1cc([C@@H]2c3cc4c(cc3[C@@H](O[C@@H]3O[C@@H]5CO[C@@H](C)O[C@H]5[C@H](O)[C@H]3O)[C@H]3COC(=O)[C@H]23)OCO4)cc(OC)c1O [etoposide]
ER stress markers peIF2α and XBP1 in cells with silenced p53 vs control cells (HepG2 cells; [5]): higher levels | amount of lipid droplets in p53 dominant negative-infected cells vs control cells (HepG2 cells; [5]): increased amount of lipid droplets | lipid deposition (oil red staining) (HepG2 cells; HepG2 cells, dose-dependent): increased lipid deposition
